The values below are quoted from earlier work in patent US20080293821A1, “Cooling compositions” (priority 2007, published 2008).

The target of the series is T1, recombinant cold-menthol receptor TRPM8 (mTRPM8) (Mus musculus, UniProt Q8R4D5).
T1 construct: host or cells: HEK293 cells (recombinant expression)
T1 sequence (Q8R4D5 whole entry): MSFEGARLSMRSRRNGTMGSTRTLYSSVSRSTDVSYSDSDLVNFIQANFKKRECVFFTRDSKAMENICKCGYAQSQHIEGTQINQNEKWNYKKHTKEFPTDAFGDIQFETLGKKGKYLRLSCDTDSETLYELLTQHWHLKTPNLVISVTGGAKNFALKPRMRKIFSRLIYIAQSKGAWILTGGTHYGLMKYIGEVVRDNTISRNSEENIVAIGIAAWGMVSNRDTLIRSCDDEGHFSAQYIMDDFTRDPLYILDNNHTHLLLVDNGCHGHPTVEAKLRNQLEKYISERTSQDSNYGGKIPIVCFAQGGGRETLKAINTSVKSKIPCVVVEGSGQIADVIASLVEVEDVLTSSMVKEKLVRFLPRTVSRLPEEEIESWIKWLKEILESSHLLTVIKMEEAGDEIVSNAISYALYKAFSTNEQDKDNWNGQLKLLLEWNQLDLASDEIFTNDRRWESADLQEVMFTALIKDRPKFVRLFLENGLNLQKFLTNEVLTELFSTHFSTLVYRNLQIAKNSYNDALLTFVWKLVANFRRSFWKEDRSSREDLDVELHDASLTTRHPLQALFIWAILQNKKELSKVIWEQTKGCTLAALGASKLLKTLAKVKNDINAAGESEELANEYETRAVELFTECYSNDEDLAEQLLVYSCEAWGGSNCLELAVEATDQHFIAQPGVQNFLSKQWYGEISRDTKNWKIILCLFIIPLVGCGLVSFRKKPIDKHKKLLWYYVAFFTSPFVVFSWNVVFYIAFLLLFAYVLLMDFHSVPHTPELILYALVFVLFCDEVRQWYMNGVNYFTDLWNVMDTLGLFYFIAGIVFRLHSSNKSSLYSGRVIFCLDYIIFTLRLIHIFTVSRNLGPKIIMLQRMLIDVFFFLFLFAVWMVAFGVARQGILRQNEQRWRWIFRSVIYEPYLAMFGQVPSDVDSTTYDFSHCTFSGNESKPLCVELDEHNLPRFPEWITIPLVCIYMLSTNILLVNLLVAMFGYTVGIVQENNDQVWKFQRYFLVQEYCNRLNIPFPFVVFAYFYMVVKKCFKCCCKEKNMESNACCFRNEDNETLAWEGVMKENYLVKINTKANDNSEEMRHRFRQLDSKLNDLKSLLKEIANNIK
The note with it: mTRPM8 expressed in HEK293 cells, FLIPR; British Journal of Pharmacology 141, 737-745 (2004).
For `CCNC(=O)C1CC(C)CCC1C(C)C` (stereo not shown) [WS-3, N-Ethyl-p-menthane-3-carboxamide], the “agonist activity on TRPM8” value is reported as “agonists”. For the molecule `CC(C)=CCC/C(C)=C/CO` [geraniol], the “agonist activity on TRPM8” value is “agonists”. As to `C=CC(C)(O)CCC=C(C)C` (stereo not shown) [linalool], the “agonist activity on TRPM8” value is “agonists”.

For the molecule `C=C(C)[C@@H]1CC[C@@H](C)C[C@H]1O` [Coolact P], the “agonist activity on TRPM8” value was “agonists”. As to `C[C@@H]1CC[C@@H](C(C)(C)O)[C@H](O)C1` [PMD38], the “agonist activity on TRPM8” value was “agonists”. Consider `CNC(=O)C(C)(C(C)C)C(C)C` [WS-23, 2-Isopropyl-N,2,3-trimethylbutyramide], for which the “agonist activity on TRPM8” value is “agonists”.

As to `CC1CCC(C(C)C)C(OC(=O)C(C)O)C1` (stereo not shown) [Frescolat ML, menthyl lactate], the “agonist activity on TRPM8” value is on record as “agonists”.

In the case of `CC1CCC(C(C)C)C(OCC(O)CO)C1` (stereo not shown) [Cooling Agent 10], the “agonist activity on TRPM8” value is “agonists”. Turning to `CC(CC=O)CCCC(C)(C)O` (stereo not shown) [hydroxycitronellal], the “agonist activity on TRPM8” value is reported as “agonists”. In the case of `CC1CCC(C(C)C)C2(C1)OCC(CO)O2` (stereo not shown) [Frescolat MGA, 6-isopropyl-9-methyl-1,4-dioxaspiro-(4,5)-decane-2-methanol], the “agonist activity on TRPM8” value is listed as “agonists”.
